# Molecular target: T1, CDK12 complexed with Cyclin K (Homo sapiens, UniProt Q9NYV4)
# T1 construct: GST (N)
# Assay: CDK Enzymatic Assays (HTRF, LANCE Ultra kinase assay), Example A1
# Assay type: biochemical
# Settings: enzyme pre-incubated with compounds for 60 minutes prior to addition of ATP (1 mM final) and Ulight-peptide; reaction 60-90 minutes at room temperature
# Excerpt: Example A1. CDK Enzymatic Assays
# The following activity of the CDK enzymes in complex with their respective cyclins we assayed: CDK1 complexed with Cyclin B1; CDK2 complexed with Cyclin E1; CDK4 complexed with Cyclin D1; CDK6 complexed with Cyclin D1; CDK6 complexed with Cyclin D3; CDK9 complexed with Cyclin T1; CDK7 complexed with Cyclin H/MAT1; CDK2 complexed with Cyclin A2; CDK5 complexed with p35; CDK12 complexed with Cyclin K; CDK13 complexed with Cyclin K. These in vitro enzyme activity are assayed using homogeneous time-resolved energy transfer (HTRF), which measures phosphorylation of a peptide substrate. The LANCER Ultra kinase assay (PerkinElmer) uses a ULight™-labeled EIF4E-binding protein 1 (THR37/46) peptide (DYSTTPGGTLFSTTPGTRI (SEQ ID NO: 1)) substrate and a Europium-labeled anti-phospho-4E-BP1 antibody (CDK2, CDK1, CDK4, CDK6, CDK9, CDK12, CDK13) or ULight™-labeled Myelin Basic Protein peptide (VTPRTPPP (SEQ ID NO: 2)) substrate and a Europium-labeled anti-phospho-MBP antibody (CDK7). Each CDK enzyme activity assays utilized human CDK co-expressed as N-terminal GST-tagged protein with its full length cyclin partner using a baculovirus expression system.
# Enzyme was pre-incubated with compounds for 30 minutes (CDK1,2,4,6,9) or 60 minutes (CDK7, CDK12, CDK13) prior to addition of ATP and Ulight-peptide (1 mM and 50 nM final, respectively), in assay buffer containing 50 mM HEPES pH 7.5, 1 mM EGTA, 10 mM MgCl2, 2 mM DTT, 0.05 mg/mL BSA, and 0.01% Tween 20. The reaction was then incubated for 60-90 minutes at room temperature. The reactions were stopped by the addition of EDTA and Europium labeled antibody, for a final concentration of 15 mM and 1.0-1.5 nM, respectively. HTRF signals were read after 15-120 minutes. A ratio of fluorescence transferred to the labeled substrate (665 nm) relative to fluorescence of the Europium donor (620 nm) represents the extent of phosphorylation. Ratios for treated wells were normalized to DMSO only (100% activity) and no enzyme (0% activity) controls. Normalized data was analyzed using a three or four parameter dose response curve to determine IC50 for each compound and are shown in Table A. Control reference inhibitors were included on each plate.
# T1 sequence (Q9NYV4 whole entry): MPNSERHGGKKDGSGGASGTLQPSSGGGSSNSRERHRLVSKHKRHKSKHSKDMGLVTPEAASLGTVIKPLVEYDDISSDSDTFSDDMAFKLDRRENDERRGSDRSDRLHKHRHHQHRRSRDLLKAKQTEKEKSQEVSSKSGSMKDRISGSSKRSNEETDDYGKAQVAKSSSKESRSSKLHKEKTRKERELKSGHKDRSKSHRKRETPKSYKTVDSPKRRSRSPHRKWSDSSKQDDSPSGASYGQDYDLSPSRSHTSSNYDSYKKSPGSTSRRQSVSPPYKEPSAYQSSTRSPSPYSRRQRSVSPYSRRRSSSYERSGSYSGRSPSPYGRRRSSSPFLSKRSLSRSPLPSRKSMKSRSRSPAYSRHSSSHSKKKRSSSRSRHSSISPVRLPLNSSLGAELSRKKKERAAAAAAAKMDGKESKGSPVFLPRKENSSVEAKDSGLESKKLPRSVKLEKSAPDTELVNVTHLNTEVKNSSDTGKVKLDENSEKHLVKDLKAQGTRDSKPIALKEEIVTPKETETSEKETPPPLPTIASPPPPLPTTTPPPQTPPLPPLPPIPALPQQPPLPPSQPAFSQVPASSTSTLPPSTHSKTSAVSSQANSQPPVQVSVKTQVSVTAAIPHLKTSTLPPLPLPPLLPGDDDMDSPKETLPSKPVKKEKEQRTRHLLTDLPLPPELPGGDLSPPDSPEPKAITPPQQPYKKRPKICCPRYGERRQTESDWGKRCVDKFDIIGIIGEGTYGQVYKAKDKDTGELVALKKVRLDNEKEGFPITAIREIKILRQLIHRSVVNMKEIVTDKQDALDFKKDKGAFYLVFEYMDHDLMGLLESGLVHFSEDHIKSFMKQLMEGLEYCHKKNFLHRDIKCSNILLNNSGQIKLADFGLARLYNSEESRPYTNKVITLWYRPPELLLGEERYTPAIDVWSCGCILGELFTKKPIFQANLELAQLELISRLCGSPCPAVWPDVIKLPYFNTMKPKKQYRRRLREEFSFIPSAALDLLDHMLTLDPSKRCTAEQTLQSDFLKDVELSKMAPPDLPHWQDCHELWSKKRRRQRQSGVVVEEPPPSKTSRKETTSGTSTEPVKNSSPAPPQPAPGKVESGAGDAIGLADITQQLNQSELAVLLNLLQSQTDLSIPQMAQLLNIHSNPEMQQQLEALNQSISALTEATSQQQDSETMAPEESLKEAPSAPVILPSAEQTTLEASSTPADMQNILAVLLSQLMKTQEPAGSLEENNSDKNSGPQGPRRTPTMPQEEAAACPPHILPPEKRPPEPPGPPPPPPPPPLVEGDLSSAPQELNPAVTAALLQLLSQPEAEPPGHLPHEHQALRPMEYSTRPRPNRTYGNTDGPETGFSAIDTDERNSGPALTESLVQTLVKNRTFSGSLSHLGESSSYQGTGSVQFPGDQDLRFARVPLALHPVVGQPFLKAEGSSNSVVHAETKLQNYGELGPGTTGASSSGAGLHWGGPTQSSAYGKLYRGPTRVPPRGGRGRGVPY
# T1 sequence (O75909 whole entry partner): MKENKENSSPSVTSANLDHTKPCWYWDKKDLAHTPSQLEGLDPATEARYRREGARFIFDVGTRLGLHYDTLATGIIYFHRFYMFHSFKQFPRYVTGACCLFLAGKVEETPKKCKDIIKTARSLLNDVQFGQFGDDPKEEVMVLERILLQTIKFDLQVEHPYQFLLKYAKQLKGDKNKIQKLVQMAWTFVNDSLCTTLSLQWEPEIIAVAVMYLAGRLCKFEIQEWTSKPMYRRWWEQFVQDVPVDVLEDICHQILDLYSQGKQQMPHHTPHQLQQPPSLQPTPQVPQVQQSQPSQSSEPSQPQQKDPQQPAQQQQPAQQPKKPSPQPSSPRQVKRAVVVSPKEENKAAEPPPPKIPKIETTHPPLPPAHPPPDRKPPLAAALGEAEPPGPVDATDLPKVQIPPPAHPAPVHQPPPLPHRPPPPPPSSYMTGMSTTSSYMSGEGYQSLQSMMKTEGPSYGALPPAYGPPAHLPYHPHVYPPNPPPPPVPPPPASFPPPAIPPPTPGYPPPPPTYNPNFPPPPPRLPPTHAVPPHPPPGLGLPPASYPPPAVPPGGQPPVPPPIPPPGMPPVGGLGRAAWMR
row,Compound,IC50 [nM]
1,"CCC(Br)C(=O)Nc1ccc2c(c1)nc([C@H]1CCC[C@@H](Nc3ncc(C#N)c(OC)n3)C1)n2C (stereo partly drawn) [Example 49, 2-Bromo-N-(2-((1S,3R)-3-((5-cyano-4-methoxypyrimidin-2-yl)amino)cyclohexyl)-1-methyl-1H-benzo[d]imidazol-5-yl)butanamide]",< 50
2,"COc1nc(N[C@@H]2CCC[C@H](N3Cc4ccc(NC(=O)CBr)cc4C3=O)C2)ncc1C#N [Example 58, 2-Bromo-N-(2-((1S,3R)-3-((5-cyano-4-methoxypyrimidin-2-yl)amino)cyclohexyl)-3-oxoisoindolin-5-yl)acetamide]",< 50
3,"C=CC(=O)Nc1ccc2c(c1)C(=O)N([C@H]1CCC[C@@H](Nc3ncc(C#N)c(N4CCOCC4)n3)C1)C2 [Example 76, N-(2-((1S,3R)-3-((5-Cyano-4-morpholinopyrimidin-2-yl)amino)cyclohexyl)-3-oxoisoindolin-5-yl)acrylamide]",< 50
4,"COc1nc(N[C@@H]2CCC[C@H](c3nc4cc(NC(=O)C5OC5C(=O)O)ccc4n3C)C2)ncc1C#N (stereo partly drawn) [Example 51, 3-((2-((1S,3R)-3-((5-Cyano-4-methoxypyrimidin-2-yl)amino)cyclohexyl)-1-methyl-1H-benzo[d]imidazol-5-yl)carbamoyl)oxirane-2-carboxylic acid]",50 to 500
5,"C=CC(=O)Nc1ccc2c(c1)C(=O)N([C@H]1CCC[C@@H](Nc3ncc(C#N)c(NC)n3)C1)C2 [Example 67, N-(2-((1S,3R)-3-((5-Cyano-4-(methylamino)pyrimidin-2-yl)amino)cyclohexyl)-3-oxoisoindolin-5-yl)acrylamide]",< 50
6,"C=CC(=O)Nc1ccc2c(c1)C(=O)N([C@H]1CCC[C@@H](Nc3ncc(C(F)(F)F)cn3)C1)C2 [Example 85, N-(3-Oxo-2-((1S,3R)-3-((5-(trifluoromethyl)pyrimidin-2-yl)amino)cyclohexyl)isoindolin-5-yl)acrylamide]",< 50
7,"C=CC(=O)Nc1cncc2sc(N3CC[C@@H](Nc4ncc(C#N)c(OC)n4)C3)nc12 [Example 38, (R)—N-(2-(3-((5-Cyano-4-methoxypyrimidin-2-yl)amino)pyrrolidin-1-yl)thiazolo[5,4-c]pyridin-7-yl)acrylamide]",< 50
8,"C=CC(=O)Nc1ccc2c(c1)nc([C@H]1CC[C@@H](Nc3ncc(C#N)cn3)C1)n2C [Example 70, N-(2-((1S,3R)-3-((5-Cyanopyrimidin-2-yl)amino)cyclopentyl)-1-methyl-1H-benzo[d]imidazol-5-yl)acrylamide]",< 50
9,"C=CC(=O)Nc1ccc2nc(N3CCC[C@@H](Nc4ncc(C#N)c(OC)n4)C3)nn2c1 [Example 44, (R)—N-(2-(3-((5-Cyano-4-methoxypyrimidin-2-yl)amino)piperidin-1-yl)-[1,2,4]triazolo[1,5-a]pyridin-6-yl)acrylamide]",< 50
10,"C=CC(=O)Nc1cccc2c1ncn2[C@H]1CCC[C@@H](Nc2ncc(C#N)c(OC)n2)C1 [Example 27, N-(1-((1S,3R)-3-((5-Cyano-4-methoxypyrimidin-2-yl)amino)cyclohexyl)-1H-benzo[d]imidazol-4-yl)acrylamide]",< 50
11,"C=CC(=O)Nc1ccc2c(c1)nc(N1CC[C@H](F)[C@@H](Nc3ncc(C(F)(F)F)cn3)C1)n2C [Example 91, N-(2-((3S,4S)-4-Fluoro-3-((5-(trifluoromethyl)pyrimidin-2-yl)amino)piperidin-1-yl)-1-methyl-1H-benzo[d]imidazol-5-yl)acrylamide]",< 50
12,"C=C(F)C(=O)Nc1ccc2c(c1)nc([C@H]1CCC[C@@H](Nc3ncc(C#N)c(OC)n3)C1)n2C [Example 53, N-(2-((1S,3R)-3-((5-Cyano-4-methoxypyrimidin-2-yl)amino)cyclohexyl)-1-methyl-1H-benzo[d]imidazol-5-yl)-2-fluoroacrylamide]",50 to 500
13,"C=CC(=O)Nc1ccc2sc(N3CCC[C@@H](Nc4ncc(C#N)c(OC)n4)C3)nc2c1 [Example 40, (R)—N-(2-(3-((5-Cyano-4-methoxypyrimidin-2-yl)amino)piperidin-1-yl)benzo[d]thiazol-5-yl)acrylamide]",< 50
14,"C=CC(=O)Nc1ccc2c(c1)C(=O)N([C@H]1CCC[C@@H](Nc3cc(C(F)(F)F)c(C#N)cn3)C1)C2 [Example 18, N-(2-((1S,3R)-3-((5-Cyano-4-(trifluoromethyl)pyridin-2-yl)amino)cyclohexyl)-3-oxoisoindolin-5-yl)acrylamide]",< 50
15,"C/C=C/C(=O)Nc1ccc2c(c1)C(=O)N([C@H]1CCC[C@@H](Nc3ncc(C#N)c(OC)n3)C1)C2 [Example 64, (E)-N-(2-((1S,3R)-3-((5-Cyano-4-methoxypyrimidin-2-yl)amino)cyclohexyl)-3-oxoisoindolin-5-yl)but-2-enamide]",> 500
16,"C=CC(=O)Nc1ccc2c(c1)nc(N1CCC[C@@H](Nc3ncc(C#N)c(OC)n3)C1)n2C [Example 37, (R)—N-(2-(3-((5-Cyano-4-methoxypyrimidin-2-yl)amino)piperidin-1-yl)-1-methyl-1H-benzo[d]imidazol-5-yl)acrylamide]",< 50
17,"C=CC(=O)Nc1ccc2c(c1)C(=O)N([C@H]1CCC[C@@H](Nc3ncc(Br)cn3)C1)C2 [Example 68, N-(2-((1S,3R)-3-((5-Bromopyrimidin-2-yl)amino)cyclohexyl)-3-oxoisoindolin-5-yl)acrylamide]",< 50
18,"COc1nc(N[C@@H]2CCC[C@H](N3Cc4ccc(NC(=O)/C=C/CN(C)C)cc4C3=O)C2)ncc1C#N [Example 63, (E)-N-(2-((1S,3R)-3-((5-Cyano-4-methoxypyrimidin-2-yl)amino)cyclohexyl)-3-oxoisoindolin-5-yl)-4-(dimethylamino)but-2-enamide]",< 50
19,"COc1nc(N[C@@H]2CCC[C@H](N3Cc4ccc(NC(=O)C(C)Br)cc4C3=O)C2)ncc1C#N (stereo partly drawn) [Example 55, 2-Bromo-N-(2-((1S,3R)-3-((5-cyano-4-methoxypyrimidin-2-yl)amino)cyclohexyl)-3-oxoisoindolin-5-yl)propanamide]",< 50
20,"C=CC(=O)N1C2CCC1CN(c1nccn3c(N4CCC[C@@H](Nc5ncc(C(F)(F)F)cn5)C4)ncc13)C2 [Example 109, 1-(3-(3-((R)-3-((5-(Trifluoromethyl)pyrimidin-2-yl)amino)piperidin-1-yl)imidazo[1,5-a]pyrazin-8-yl)-3,8-diazabicyclo[3.2.1]octan-8-yl)prop-2-en-1-one]",< 50
21,"C=CC(=O)Nc1ccc2c(c1)C(=O)N([C@H]1CCC[C@@H](Nc3ncc(C#N)c(NCC(C)(C)O)n3)C1)C2 [Example 66, N-(2-((1S,3R)-3-((5-Cyano-4-((2-hydroxy-2-methylpropyl)amino)pyrimidin-2-yl)amino)cyclohexyl)-3-oxoisoindolin-5-yl)acrylamide]",< 50
22,"C=CC(=O)Nc1ccc2c(c1)C(=O)N([C@H]1CCC[C@@H](Nc3ncc(CC)cn3)C1)C2 [Example 10, N-(2-((1S,3R)-3-((5-Ethylpyrimidin-2-yl)amino)cyclohexyl)-3-oxoisoindolin-5-yl)acrylamide]",< 50
23,"C=CC(=O)Nc1cc2nc(N3CC[C@@H](F)[C@@H](Nc4ncc(C(F)(F)F)cn4)C3)n(C)c2cc1C [Example 98, N-(2-((3S,4R)-4-Fluoro-3-((5-(trifluoromethyl)pyrimidin-2-yl)amino)piperidin-1-yl)-1,6-dimethyl-1H-benzo[d]imidazol-5-yl)acrylamide]",< 50

# Reference: patent publication US12643881B2, “Bicyclic amine CDK12 inhibitors” (Incyte Corporation, priority 2021, dated 2026)
